The text below walks through data of patent publication US20230108687A1, “GENE EDITING METHODS FOR TREATING SPINAL MUSCULAR ATROPHY” (The Broad Institute, Inc., priority 2020, published 2023).

The subject of test [1] is human SMN2 transgene exon 7 C840T (C6T) in SMA mESCs. Kind of test: Adenine base editing of SMN2 C840T (C6T) after transfection of SMA mESCs. Type of test: cell-based, mouse. Particulars: ABE8 fusions, FIG. 4.
The subject of test [2] is DNA. Particulars: SpCas9 mutation relative to SEQ ID NO: 5; UniProtKB Q99ZW2 entry; cited from earlier work.

Consider “iSpyMac: iSpyMac-variant ABE8e adenine base editor; SEQ ID NO: 476”, for which, in test [1], the “editing of C840T” value is listed as “edited C840T with high efficiency”.

B1: 175-307 deletion: SpCas9 mutation relative to SEQ ID NO: 5 (protein)
chain: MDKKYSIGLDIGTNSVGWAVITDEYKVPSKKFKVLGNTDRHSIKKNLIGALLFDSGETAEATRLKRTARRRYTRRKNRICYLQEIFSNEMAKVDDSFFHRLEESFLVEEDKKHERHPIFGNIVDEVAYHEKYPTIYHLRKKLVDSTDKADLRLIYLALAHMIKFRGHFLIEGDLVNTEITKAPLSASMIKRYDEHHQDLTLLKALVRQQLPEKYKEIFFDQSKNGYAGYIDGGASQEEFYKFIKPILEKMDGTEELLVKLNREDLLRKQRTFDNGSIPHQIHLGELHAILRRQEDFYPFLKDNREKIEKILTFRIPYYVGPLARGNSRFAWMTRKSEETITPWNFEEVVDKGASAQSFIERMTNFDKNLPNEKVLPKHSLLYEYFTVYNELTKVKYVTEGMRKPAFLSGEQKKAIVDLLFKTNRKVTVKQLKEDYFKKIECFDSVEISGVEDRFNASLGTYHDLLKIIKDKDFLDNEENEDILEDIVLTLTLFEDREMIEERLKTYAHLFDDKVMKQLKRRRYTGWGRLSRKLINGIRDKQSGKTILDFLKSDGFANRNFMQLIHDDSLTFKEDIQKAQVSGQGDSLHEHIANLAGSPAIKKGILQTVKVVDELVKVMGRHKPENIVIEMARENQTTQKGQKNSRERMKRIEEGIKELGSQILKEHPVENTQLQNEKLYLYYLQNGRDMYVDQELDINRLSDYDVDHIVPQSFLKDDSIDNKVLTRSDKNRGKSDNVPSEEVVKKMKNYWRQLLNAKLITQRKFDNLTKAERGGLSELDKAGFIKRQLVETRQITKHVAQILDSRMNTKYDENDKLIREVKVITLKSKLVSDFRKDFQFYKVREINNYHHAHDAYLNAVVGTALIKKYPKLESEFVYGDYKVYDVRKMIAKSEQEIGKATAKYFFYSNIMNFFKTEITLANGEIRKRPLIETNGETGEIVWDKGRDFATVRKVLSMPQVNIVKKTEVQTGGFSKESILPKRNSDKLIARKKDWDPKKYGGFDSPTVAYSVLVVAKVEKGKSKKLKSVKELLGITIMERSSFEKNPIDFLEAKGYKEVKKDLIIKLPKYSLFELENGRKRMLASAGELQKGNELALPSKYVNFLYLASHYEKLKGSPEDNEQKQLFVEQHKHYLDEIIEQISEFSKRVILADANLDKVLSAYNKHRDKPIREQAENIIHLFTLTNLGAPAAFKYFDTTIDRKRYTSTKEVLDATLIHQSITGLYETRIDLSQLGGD
modifications: Streptococcus pyogenes
As for B1, in test [2], the “decreased DNA cleavage” value was “About 50% decreased DNA cleavage”.
